From patent US8188273B2, “Insecticidal (1,3,5)-triazinyl phenyl hydrazones” (Dow AgroSciences, LLC., priority 2007, dated 2012)
Where two headings read alike, the source gives them in different places.

Experiments:
[1] = tested on: corn earworm (Helicoverpa zea); assay: Insecticidal test on treated lepidopteran diet, corn earworm; type: in vivo; details: 120 h, read-out: AVG HELIZE 50 (percent control, corn ear worm)
Description: (§1) The compounds identified in Table 1 were prepared according to the previous methods and were tested against beet armyworm and corn earworm as follows:
(§2) Insecticidal Test for Corn Earworm (Helicoverpa zea) and Beet Armyworm (Spodoptera exigua).
(§3) To prepare test solution, the test compound was formulated at 2000 ppm solution as 4 mg/2 mL of 9 acetone:1 tap water. 50 μL of the 2000 ppm (equivalent to 50 μg/cm^2 dose on diet surface area) test solution was pipetted upon the surface of 1 mL of lepidopteran diet (Southland Multi-Species Lepidopteran Diet) contained in each of eight wells per insect species (one well=1 replication). A second-instar corn earworm and beet armyworm was placed upon the treated diet in each well once the solvent had air-dried. Trays containing the treated diet and larvae were covered and then held in a growth chamber at 25° C., 50-55% RH, and 16 hr light:8 hr dark for 5 days. Observation were conducted 5 days after treatment and infestation. The number of dead insects of 8 per species per treatment was then determined and the results are given in Table 1 as a percent control at a dose of […].
(§4) Keys to the table: Mass spectral data were obtained using liquid chromatography mass spectroscopy (LC-MS). The masses are detected using electrospray ionization (ESI) and reported as Mol Ion (M+H, M−H); AVG LAPHEG 50 refers to activity against beet army worm (Spodoptera exigua) as defined above; AVG HELIZE 50 refers to activity against corn ear worm (Helicoverpa zea) as described above.

[2] = tested on: beet armyworm (Spodoptera exigua); assay: Insecticidal test on treated lepidopteran diet, beet armyworm; type: in vivo; details: 120 h, read-out: AVG LAPHEG 50 (percent control, beet army worm)
Description: as §1, §2, §3, §4

[3] = second-instar larvae on treated diet, 8 wells, dose of 50 mg/cm^2 [sic] (2000 ppm, 50 μL), dead insects counted 5 days after treatment

COCC(C)Nc1nc(N/N=C/c2ccc(OC(F)(F)F)cc2)nc(Nc2ccc(OC(F)(F)F)cc2)n1 (stereo not shown) [Compound 24]
pest or weed control at 2000 µg/mL [1, 3]: 100% | pest or weed control at 2000 µg/mL [2, 3]: 100%

FC(F)C(F)(F)Oc1ccc(Nc2nc(NCc3ccc(Cl)nc3)nc(N/N=C/c3ccc(Cl)c(Cl)c3)n2)cc1 [Compound 94]
pest or weed control at 2000 µg/mL [1, 3]: 100% | pest or weed control at 2000 µg/mL [2, 3]: 100%

FC(F)(F)Oc1ccc(Nc2nc(N/N=C/c3cccc(Br)c3)nc(N3CCOCC3)n2)cc1 [Compound 38]
pest or weed control at 2000 µg/mL [1, 3]: 100% | pest or weed control at 2000 µg/mL [2, 3]: 0%

Fc1ccc(Nc2nc(NCc3ccc(Cl)nc3)nc(N/N=C/c3cc(Cl)cc(Cl)c3)n2)cc1C(F)(F)F [Compound 67]
pest or weed control at 2000 µg/mL [1, 3]: 100% | pest or weed control at 2000 µg/mL [2, 3]: 100%

O=C1CN(c2nc(N/N=C/c3ccc(OC(F)(F)F)cc3)nc(Nc3ccc(OC(F)(F)F)cc3)n2)CCN1 [Compound 6]
pest or weed control at 2000 µg/mL [1, 3]: 100% | pest or weed control at 2000 µg/mL [2, 3]: 100%

FC(F)(F)Oc1ccc(Nc2nc(N/N=C/c3ccc(Cl)cc3Cl)nc(N3CCOCC3)n2)cc1 [Compound 40]
pest or weed control at 2000 µg/mL [1, 3]: 0% | pest or weed control at 2000 µg/mL [2, 3]: 25%

Fc1ccc(Nc2nc(NCc3ccc(Cl)nc3)nc(N/N=C/c3cccc(Br)c3)n2)cc1C(F)(F)F [Compound 70]
pest or weed control at 2000 µg/mL [1, 3]: 100% | pest or weed control at 2000 µg/mL [2, 3]: 100%

FC(F)(F)Oc1ccc(Nc2nc(N/N=C/c3ccccc3Br)nc(N3CCOCC3)n2)cc1 [Compound 43]
pest or weed control at 2000 µg/mL [1, 3]: 0% | pest or weed control at 2000 µg/mL [2, 3]: 13%

FC(F)(F)Oc1ccc(Nc2nc(N/N=C/c3ccccc3C(F)(F)F)nc(N3CCOCC3)n2)cc1 [Compound 41]
pest or weed control at 2000 µg/mL [1, 3]: 0% | pest or weed control at 2000 µg/mL [2, 3]: 13%

Fc1ccc(Nc2nc(NCc3ccc(Cl)nc3)nc(N/N=C/c3cccc(OC(F)(F)F)c3)n2)cc1C(F)(F)F [Compound 60]
pest or weed control at 2000 µg/mL [1, 3]: 100% | pest or weed control at 2000 µg/mL [2, 3]: 100%

FC(F)(F)Oc1ccc(/C=N/Nc2ncnc(Nc3cccc(C(F)(F)F)c3)n2)cc1 [Compound 101]
pest or weed control at 2000 µg/mL [1, 3]: 100% | pest or weed control at 2000 µg/mL [2, 3]: 100%

CC1CN(c2nc(N/N=C/c3ccc(OC(F)(F)C(F)F)cc3)nc(Nc3ccc(F)c(C(F)(F)F)c3)n2)CC(C)O1 (stereo not shown) [Compound 49]
pest or weed control at 2000 µg/mL [1, 3]: 100% | pest or weed control at 2000 µg/mL [2, 3]: 100%

Fc1ccc(Nc2nc(N/N=C/c3ccc(OC(F)(F)F)cc3)nc(N3CCOCC3)n2)cc1C(F)(F)F [Compound 54]
pest or weed control at 2000 µg/mL [1, 3]: 100% | pest or weed control at 2000 µg/mL [2, 3]: 100%

CC1CN(c2nc(N/N=C/c3ccc(OC(F)(F)F)cc3)nc(Nc3ccc(F)c(C(F)(F)F)c3)n2)CC(C)O1 (stereo not shown) [Compound 46]
pest or weed control at 2000 µg/mL [1, 3]: 100% | pest or weed control at 2000 µg/mL [2, 3]: 100%

FC(F)C(F)(F)Oc1ccc(Nc2nc(NCc3ccc(Cl)nc3)nc(N/N=C/c3ccc(C(F)(F)F)cc3)n2)cc1 [Compound 93]
pest or weed control at 2000 µg/mL [1, 3]: 100% | pest or weed control at 2000 µg/mL [2, 3]: 100%

Fc1ccc(Nc2ncnc(N/N=C/c3cccc(C(F)(F)F)c3)n2)cc1C(F)(F)F [Compound 102]
pest or weed control at 2000 µg/mL [1, 3]: 100% | pest or weed control at 2000 µg/mL [2, 3]: 100%

Fc1ccc(Nc2nc(NCc3ccc(Cl)nc3)nc(N/N=C/c3cccc(Cl)c3)n2)cc1C(F)(F)F [Compound 75]
pest or weed control at 2000 µg/mL [1, 3]: 100% | pest or weed control at 2000 µg/mL [2, 3]: 100%

FC(F)C(F)(F)Oc1cccc(Nc2nc(NCc3ccc(Cl)nc3)nc(N/N=C/c3ccc(Cl)cc3)n2)c1 [Compound 86]
pest or weed control at 2000 µg/mL [1, 3]: 100% | pest or weed control at 2000 µg/mL [2, 3]: 100%

Fc1ccc(Nc2nc(NCc3ccc(Cl)nc3)nc(N/N=C/c3cccc(OC(F)(F)C(F)F)c3)n2)cc1C(F)(F)F [Compound 51]
pest or weed control at 2000 µg/mL [1, 3]: 100% | pest or weed control at 2000 µg/mL [2, 3]: 100%

FC(F)C(F)(F)Oc1cccc(Nc2nc(N/N=C/c3ccc(C(F)(F)F)cc3)nc(N3CCOCC3)n2)c1 [Compound 84]
pest or weed control at 2000 µg/mL [1, 3]: 75% | pest or weed control at 2000 µg/mL [2, 3]: 25%

CCOc1nc(N/N=C/c2ccc(OC)cc2)nc(Nc2cccc(C(F)(F)F)c2)n1 [Compound 14]
pest or weed control at 2000 µg/mL [1, 3]: 13% | pest or weed control at 2000 µg/mL [2, 3]: 25%

FC(F)C(F)(F)Oc1cccc(/C=N/Nc2nc(Nc3ccc(OC(F)(F)F)cc3)nc(N3CCOCC3)n2)c1 [Compound 61]
pest or weed control at 2000 µg/mL [1, 3]: 100% | pest or weed control at 2000 µg/mL [2, 3]: 100%

COCCNc1nc(N/N=C/c2ccc(OC(F)(F)F)cc2)nc(Nc2ccc(OC(F)(F)F)cc2)n1 [Compound 15]
pest or weed control at 2000 µg/mL [1, 3]: 88% | pest or weed control at 2000 µg/mL [2, 3]: 100%

Fc1ccc(Nc2nc(NCc3ccc(Cl)nc3)nc(N/N=C/c3ccccc3Cl)n2)cc1C(F)(F)F [Compound 72]
pest or weed control at 2000 µg/mL [1, 3]: 25% | pest or weed control at 2000 µg/mL [2, 3]: 0%

FC(F)(F)COc1nc(N/N=C/c2cccc(Cl)c2)nc(Nc2ccc(OC(F)(F)F)cc2)n1 [Compound 27]
pest or weed control at 2000 µg/mL [1, 3]: 100% | pest or weed control at 2000 µg/mL [2, 3]: 100%

Fc1cc(/C=N/Nc2nc(Nc3ccc(OC(F)(F)F)cc3)nc(N3CCOCC3)n2)ccc1Cl [Compound 42]
pest or weed control at 2000 µg/mL [1, 3]: 100% | pest or weed control at 2000 µg/mL [2, 3]: 88%

FC(F)(F)Oc1ccc(/C=N/Nc2nc(NCCN3CCOCC3)nc(Nc3cccc(C(F)(F)F)c3)n2)cc1 [Compound 50]
pest or weed control at 2000 µg/mL [1, 3]: 100% | pest or weed control at 2000 µg/mL [2, 3]: 100%

CCOCCNc1nc(N/N=C/c2ccc(OC(F)(F)F)cc2)nc(Nc2ccc(OC(F)(F)F)cc2)n1 [Compound 25]
pest or weed control at 2000 µg/mL [1, 3]: 100% | pest or weed control at 2000 µg/mL [2, 3]: 100%

CCOC(=O)CNc1nc(N/N=C/c2ccc(OC(F)(F)F)cc2)nc(Nc2ccc(OC(F)(F)F)cc2)n1 [Compound 26]
pest or weed control at 2000 µg/mL [1, 3]: 100% | pest or weed control at 2000 µg/mL [2, 3]: 50%

FC(F)(F)COc1nc(N/N=C/c2ccc(Cl)c(Cl)c2)nc(Nc2ccc(OC(F)(F)F)cc2)n1 [Compound 30]
pest or weed control at 2000 µg/mL [1, 3]: 100% | pest or weed control at 2000 µg/mL [2, 3]: 100%

Fc1ccc(Nc2nc(N/N=C/c3cccc(OC(F)(F)C(F)F)c3)nc(N3CCOCC3)n2)cc1F [Compound 78]
pest or weed control at 2000 µg/mL [1, 3]: 88% | pest or weed control at 2000 µg/mL [2, 3]: 13%

FC(F)C(F)(F)Oc1ccc(/C=N/Nc2ncnc(Nc3cccc(C(F)(F)F)c3)n2)cc1 [Compound 100]
pest or weed control at 2000 µg/mL [1, 3]: 100% | pest or weed control at 2000 µg/mL [2, 3]: 100%

Fc1ccc(Nc2nc(N/N=C/c3ccc(OC(F)(F)C(F)F)cc3)nc(N3CCOCC3)n2)cc1C(F)(F)F [Compound 52]
pest or weed control at 2000 µg/mL [1, 3]: 100% | pest or weed control at 2000 µg/mL [2, 3]: 100%

CCOc1nc(N/N=C/c2cccc(C(F)(F)F)c2)nc(Nc2ccc(OC(F)(F)F)cc2)n1 [Compound 10]
pest or weed control at 2000 µg/mL [1, 3]: 0% | pest or weed control at 2000 µg/mL [2, 3]: 13%

CCOc1nc(N/N=C/c2ccc(F)cc2)nc(Nc2ccc(OC(F)(F)F)cc2)n1 [Compound 11]
pest or weed control at 2000 µg/mL [1, 3]: 100% | pest or weed control at 2000 µg/mL [2, 3]: 13%

FC(F)(F)Oc1ccc(Nc2nc(N/N=C/c3ccc(Cl)c(Cl)c3)nc(N3CCOCC3)n2)cc1 [Compound 39]
pest or weed control at 2000 µg/mL [1, 3]: 100% | pest or weed control at 2000 µg/mL [2, 3]: 88%

FC(F)(F)c1cccc(/C=N/Nc2ncnc(Nc3cccc(C(F)(F)F)c3)n2)c1 [Compound 103]
pest or weed control at 2000 µg/mL [1, 3]: 100% | pest or weed control at 2000 µg/mL [2, 3]: 38%

FC(F)(F)Oc1ccc(/C=N/Nc2nc(Nc3ccc(OC(F)(F)F)cc3)nc(N3CCOCC3)n2)cc1 [Compound 4]
pest or weed control at 2000 µg/mL [1, 3]: 100% | pest or weed control at 2000 µg/mL [2, 3]: 100%

Fc1cc(/C=N/Nc2nc(Nc3ccc(OC(F)(F)F)cc3)nc(OCC(F)(F)F)n2)ccc1Cl [Compound 33]
pest or weed control at 2000 µg/mL [1, 3]: 100% | pest or weed control at 2000 µg/mL [2, 3]: 100%

FC(F)(F)Oc1ccc(Nc2nc(N/N=C/c3c(Cl)cccc3Cl)nc(N3CCOCC3)n2)cc1 [Compound 44]
pest or weed control at 2000 µg/mL [1, 3]: 0% | pest or weed control at 2000 µg/mL [2, 3]: 13%

FC(F)(F)COc1nc(N/N=C/c2ccc(Br)cc2)nc(Nc2ccc(OC(F)(F)F)cc2)n1 [Compound 98]
pest or weed control at 2000 µg/mL [1, 3]: 100% | pest or weed control at 2000 µg/mL [2, 3]: 100%

Fc1ccc(Nc2ncnc(N/N=C/c3ccc(OC(F)(F)F)cc3)n2)cc1C(F)(F)F [Compound 3, (4-Fluoro-3-trifluoromethylphenyl)-(4-{N′-[1-(4-trifluoromethoxyphenyl)-methylidene]-hydrazino}-[1,3,5]triazin-2-yl)-amine]
pest or weed control at 2000 µg/mL [1, 3]: 100% | pest or weed control at 2000 µg/mL [2, 3]: 100%

FCCOc1ccc(/C=N/Nc2nc(NCc3ccc(Cl)nc3)nc(Nc3ccc(F)c(C(F)(F)F)c3)n2)cc1 [Compound 95]
pest or weed control at 2000 µg/mL [1]: 38% | pest or weed control at 2000 µg/mL [2]: 75%

Fc1cccc(/C=N/Nc2nc(NCc3ccc(Cl)nc3)nc(Nc3ccc(F)c(C(F)(F)F)c3)n2)c1 [Compound 73]
pest or weed control at 2000 µg/mL [1, 3]: 100% | pest or weed control at 2000 µg/mL [2, 3]: 100%
